For test [1], the system named is patients with major depressive disorder. As to the kind of experiment: Open-label trials of adjunctive agomelatine 25 mg at bedtime in MDD (NCT05118750, NCT05157945): MADRS change by EEG-predicted response. The format is in vivo, human. The method, then: The inventors conducted two parallel open-label clinical trials of agomelatine at 25 mg once at bedtime in patients with major depressive disorder (NCT05118750 and NCT05157945, whose data was pooled in these analyses). […] Patients were evaluated over the course of eight weeks of treatment.
EEG data were collected at rest (encompassing both eyes open and eyes closed conditions) prior to treatment using a 19-channel EEG system covering the conventional 10-20 electrode locations. A total of 107 patients with moderate to severe depression (MADRS≥20 and PHQ-9≥10) had EEG data (107 with eyes open (REO) EEG, 105 with eyes closed (REC) EEG). Quality control assessments were conducted, yielding 105 REO patient datasets and 103 REC patient datasets. […] The training dataset consisted of 60 REO patient datasets and 60 REC patient datasets. The holdout set consisted of 49 REO patient datasets and 46 REC patient datasets.
In order to compile these individual signals into a single EEG composite entropy model for prediction of treatment outcome, the inventors conducted 10-fold cross-validated machine learning using elastic net regularization against an outcome of high versus low response to agomelatine. […]
The Cohen's d effect sizes at these weeks are all >0.4, indicating a substantial effect size for the prediction, especially considering that the meta-analytically calculated all-comer (i.e., unselected depression patients) effect size for the difference in treatment response to agomelatine (as monotherapy) versus placebo is d=0.26 (Cipriani et al., Lancet., 2018, 391 (10128): 1357-1366, PMID: 29477251).
Given the approximate 50% prevalence of positivity on the EEG machine learning model, one can estimate the agomelatine-placebo difference in EEG-predicted agomelatine responders by adding the all-comer effect size (d=0.26) to the enrichment in EEG-predicted responders over the all-comer population. This enrichment is calculated by halving the effect size between EEG-predicted responders and non-responders, since the average of these two groups is the all-comer population. […]

For a further test, the system named is circadian rhythm. The conditions noted are these: due to melatonergic agonism; cited from earlier work.
Test [2] has as its system unselected depression patients. The conditions noted are these: meta-analytically calculated; cited from earlier work.
Another test has as its system sleep measures. The conditions noted are these: in contrast to an SSRI which did not change these measures; cited from earlier work.

Take `COc1ccc2cccc(CCNC(C)=O)c2c1` [agomelatine, N-[2-(7-methoxynaphthalen-1-yl)ethyl]acetamide]: the “Cohen's d effect size, predicted responders vs non-responders, change in MADRS scores” value in test [1] (EEG sample entropy machine learning model, cross-validation left-out data of training dataset, all weeks (FIG. 2A)) is listed as > 0.4. Moreover, the “Cohen's d, predicted agomelatine responders versus non-responders, observed change in MADRS scores” value in test [1] (EEG sample entropy model, holdout dataset, weeks 4, 6 and 8 (FIG. 2B)) is given as > 0.4. The “MADRS change, high vs low Pz low-gamma sample entropy patients” value in test [1] (Pz electrode, 30-40 Hz, z≥0.27, full study sample, all weeks (FIG. 2C)) was “strong and statistically significant prediction of treatment outcome across all weeks”. Also, the “effect on circadian rhythm” value with circadian rhythm was “phase advance circadian rhythm”. Moreover, the “all-comer effect size d, treatment response to agomelatine (as monotherapy) versus placebo” value in test [2] is 0.26. Also, in the test with sleep measures, the “sleep measures assessed using actigraphic measurements” value was “improve sleep measures”.

With `COc1ccc2[nH]cc(CCNC(C)=O)c2c1` [melatonin], the “effect on circadian rhythm” value with circadian rhythm is “phase advance circadian rhythm”.

(Values after patent publication US12226375B1, “Method of treatment and selection of patients benefiting from agomelatine based on EEG measurements” (Alto Neuroscience, Inc., priority 2023, dated 2025).)
